“And” between values parts separate entries of the source, which are not always exact repeats. Identical values can stand only once. The source made the active and inactive calls.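 Rule for the calls: active = compounds giving half or more protection of infected cells from virus-caused growth loss, again on retest; inactive = the rest.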 Where a SMILES comes first, the peptide text is derived from it.
Tested on: CEM cells HIV-1 protection, formazan growth assay
Test: NCI AIDS Antiviral Assay
Conditions: for IC50: measured here: growth of uninfected CEM cells
Procedure, shortened: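 Five concentrations of each compound were applied to infected and uninfected human CEM cells. Protection from HIV-1 was judged from growth measured with a soluble formazan assay.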

SMILES | outcome | EC50 | IC50
NCC1OC(OC2C(CO)OC(OC3C(O)C(N)CC(N)C3OC3OC(CO)C(O)CC3N)C2O)C(N)C(O)C1OC1OC(CO)C(O)C(O)C1O (configuration not stated) | inactive | – | –
CC(C)=CCN1Cc2c(Cl)ccc3[nH]c(=S)n(c23)C[C@@H]1C | – | 0.00224 µM | 5.89 µM
COc1cc(Oc2nc3cc(F)c(F)cc3nc2-c2ccccc2)cc(OC)c1OC | – | > 100 µM | 35.5 µM
COc1ccc(-c2c(O)c3c(OC)cc(OC)cc3oc2=O)cc1 | – | > 200 µM | 158 µM
O=S(O)CCCSSCCCCSSCCCS(=O)O | inactive | – | –
[N-]=[N+]=CC(=O)CCC(=O)N(c1ccccc1)c1ccccc1 | – | 135 µM | 195 µM
COc1ccc(NC(=O)c2c(N)c(C#N)c3n2CCC3)cc1 | – | > 200 µM | > 200 µM
c1ccc(N2CCN(CCCN3CCc4c([nH]c5ccccc45)C3c3cccnc3)CC2)cc1 (configuration not stated) | – | > 2.19 µM | > 2.19 µM
CCOC(=O)/C(F)=C/c1ccc(C)cc1 | – | > 126 µM | > 126 µM
COc1ccc(OC)c2c3c(ccc12)C(c1ccccc1)OC3=O (configuration not stated) | inactive | – | –
O=C1c2ccccc2CC1(Br)C(Br)c1ccccc1 (configuration not stated) | – | > 200 µM | 10.7 µM and 10 µM
CCN=C(N)C(C)SS(=O)(=O)O (configuration not stated) | – | > 200 µM | 170 µM
O=C(NCCCNC(=O)c1ccc2cc(O)ccc2c1)c1ccc2cc(O)ccc2c1 | inactive | – | –
COc1ccc(/C=N/NC(=O)c2ccccc2Nc2ccccc2C(=O)N/N=C/c2ccc(OC)cc2)cc1 | – | > 102 µM | 85.1 µM
C(=NCCCN1CCN(CCCN=Cc2cccc3ccccc23)CC1)c1cccc2ccccc12 | – | > 200 µM | 46.8 µM
O/N=C1/CCCC/C1=C/C=C/c1ccccc1 | – | > 16.6 µM | > 16.6 µM
NNC(=O)CSc1nc2ccccc2c(=O)n1N | – | > 200 µM | > 200 µM
O=C(NCCCNCCCCNCCCNC(=O)C(F)(F)F)C(F)(F)F | – | > 200 µM | 14.8 µM
CC(O)(P(=O)(O)O)P(=O)(O)OCC(O)CN1CCOCC1 (configuration not stated) | – | > 100 µM | > 100 µM
COC(=O)c1cc2c(c3c1CC(Cc1ccccc1)C3=O)CCC2 (configuration not stated) | – | > 200 µM | 33.1 µM
CC(=O)c1c2c(cc3c1CC1(Cc4cc5c(cc4C1=O)CCC5)C3)CCC2 (configuration not stated) | – | > 200 µM | 13.5 µM

SMILES | outcome | EC50 | IC50
COc1ccc(CCCCl)c(C2=NCCc3cc(OC)c(OC)cc32)c1 | – | > 200 µM | 36.3 µM
CC1c2c(cc(=O)n(C)c2O)C(=O)N1C (configuration not stated) | – | 288 µM | 457 µM
NS(=O)(=O)c1ccc(Nc2c3ccccc3nc3c(C(=O)NCCO)cccc23)cc1 | – | > 200 µM | 5.25 µM
CCCCCCCC(=O)OCC1OC(OC)C(NC(=O)N(CCCl)N=O)C(O)C1O (configuration not stated) | – | > 79.4 µM | 8.51 µM
CNc1nc(N)c(N=O)c(Nc2ccc(Br)cc2)n1 | – | > 200 µM | 170 µM
CCOC(COc1c2occc2cc2ccc(=O)oc12)OCC | – | > 141 µM | 51.3 µM
CC(C)(c1cn(Cc2ccccc2)c2ccccc12)c1cn(Cc2ccccc2)c2ccccc12 | inactive | – | –
NC(=S)N/N=C(/CCN1CCCC1)CC(C1=C(O)C2=CCCCC2OC1=O)c1ccccc1 (configuration not stated) | – | > 135 µM | > 135 µM
OC(C1CCCC1=N/N=C1/CCCC1C(O)(C(F)(F)Cl)C(F)(F)Cl)(C(F)(F)Cl)C(F)(F)Cl (configuration not stated) | – | > 50.1 µM | > 50.1 µM
CC(C)(C)NC(NC(C)(C)C)=C(/C=C(/Cl)[N+](=O)[O-])[N+](=O)[O-] | – | > 200 µM | 162 µM
CC(=O)O[C@H]1CCN2C(=O)C=CC(OCc3ccccc3)C12 (some centres not stated) | – | > 832 µM | 794 µM
Nn1c(=O)n2n(c1=O)C1CCC2C1 | – | > 200 µM | > 200 µM
O=C1c2cccc3cc([N+](=O)[O-])cc(c23)C(=O)N1CCN1CCCC1 | – | > 200 µM | 0.0832 µM
O=C1NC2(CCCCC2)NC12CCCCC2 | – | > 135 µM | > 135 µM
N.N.N.N.N.[Co+3].[I-].[N-]=[N+]=[N-] | inactive | – | –
NC(N)=N/N=C(/CCN1CCCC1)CC(c1ccccc1)c1c(O)c2ccccc2oc1=O (configuration not stated) | – | > 38.9 µM | > 38.9 µM
O=C(O)CCC(=O)N1c2ccccc2CC1c1c[nH]c2ccccc12 (configuration not stated) | – | > 741 µM | 158 µM
CCC(C)C(NC(=O)c1ccccc1SC(=O)CCCC[n+]1ccccc1)C(N)=O (configuration not stated) | – | > 35.5 µM | 4.07 µM
CC1OC(OC23C(=O)CC(C)(O)CC2(O)C=CC2=C3C(=O)c3ccc(C4CC(OC5CCC(OC6CC(O)C(O)C(C)O6)C(C)O5)C(O)C(C)O4)c(O)c3C2=O)CCC1O (configuration not stated) | – | > 295 µM | 4.9 µM
CC(C)(C)C1CCC2(N3CCOCC3)C(C#N)CC2C1 (configuration not stated) | – | > 794 µM | 89.1 µM and > 794 µM
CC1(C)N=C(C(N)=O)c2ncn(N)c2N1 | – | > 200 µM | > 200 µM

SMILES | outcome | EC50 | IC50
C[CH2][Ge]([CH2]C)([CH2]C)[O]C(=O)CCC(=O)[O][Ge]([CH2]C)([CH2]C)[CH2]C | – | > 214 µM | > 214 µM
O=C(O)C1=C(O)C(C(=O)O)C23CCCCCCCCCCC12C(C(=O)O)C(O)=C3C(=O)O (configuration not stated) | inactive | – | –
COc1ccc2nc3c([N+](=O)[O-])ccc4c3c(c2c1)N=CN4CCCN(C)C | – | 0.141 µM | 0.468 µM
COc1ccccc1/C=C/c1ccnc2ccccc12 | – | > 200 µM | 32.4 µM
CN1C(=O)C2(Cc3cn(C45CC67SSC(CO)(C(=O)N6C4Nc4ccccc45)N(C)C7=O)c4ccccc34)SSC1(CO)C(=O)N2C (configuration not stated) | – | > 0.2 µM | 0.00661 µM
Cc1cccc2c1Oc1ccccc1C2NC(=O)CCN(C)C (configuration not stated) | – | > 200 µM | 38 µM
CC(NC(=O)OC(C)(C)C)C(=O)C(N)=O (configuration not stated) | – | > 200 µM | > 200 µM
Nc1ncnc2c1ncn2CC1COC(CO)O1 (configuration not stated) | – | > 1000 µM | > 1000 µM
NC(=S)N/N=C1\C(=O)N(c2cccc([N+](=O)[O-])c2)C(=O)C1C(=O)Nc1cccc([N+](=O)[O-])c1 (configuration not stated) | inactive | – | –
COc1ccc(/C=C\c2cc(OC)c(OC)c(OC)c2)cc1OC(=O)CC(N)C(=O)O (configuration not stated) | – | > 0.2 µM | 0.000309 µM
O=c1nc2c(c(-c3ccccc3Cl)[nH]1)COC/C2=C\c1ccccc1Cl | – | > 200 µM | 89.1 µM
O=C1[C@@H]2C(c3ccccc3F)=NO[C@@H]2C(=O)N1c1ccc(Cc2ccc(N3C(=O)[C@H]4C(c5ccccc5F)=NO[C@H]4C3=O)cc2)cc1 | – | > 8.32 µM | > 8.32 µM
O=C1NC(c2ccc(O)cc2)C2CCC1C2 (configuration not stated) | – | > 1150 µM | 955 µM
CCOC(=O)C1C(c2ccccc2)C2(C#N)C(=N)OC1(C)C2(C#N)C#N (configuration not stated) | – | > 200 µM | 28.8 µM
CN(C)c1ccc(C2NCCc3c2[nH]c2ccccc32)cc1 (configuration not stated) | – | > 200 µM | 25.1 µM
Clc1ccc(/C(=C\c2ccccc2)Cn2ccnc2)cc1 | – | > 200 µM | 16.2 µM
CCOC(=O)Cc1csc(NC(NC(=O)OCC)(C(=O)OCC)C(F)(F)F)n1 (configuration not stated) | – | > 200 µM | > 200 µM
CCOC(=O)[C@H](C)OC(=O)[C@@](C)(NC(=O)c1ccccc1C(=O)OC)[C@@H]1NC=C(C(=O)OC)CS1 | – | > 200 µM | 53.7 µM
COc1ccc2c(c1)CCN=C2Cc1cc(OC)c(OC)cc1CCCl | – | > 200 µM | 53.7 µM
CCCCCCCCCCCCCCCCCC(=O)OC[C@H](COP(=O)(O)OCCNC(=O)CCC(=O)O)OC(=O)CCCCCCCCCCCCCCCCC | – | > 50.1 µM | > 50.1 µM
CCOC(=O)[C@H](Cc1ccccc1)NC(=O)c1nc[nH]c1[N+](=O)[O-] | – | > 537 µM | 372 µM

SMILES | outcome | EC50 | IC50
CC1=C([N+](=O)[O-])[C@@H](N2CCOCC2)[C@](C)(N2CCOCC2)S1 | inactive | – | –
CCOc1ccc(NC(=O)CCC(=O)NN)cc1 | – | > 724 µM | 603 µM
COc1cc(OC)c2c(O)c(S(=O)(=O)c3ccc(C)cc3)c(=O)oc2c1 | – | > 200 µM | > 200 µM
O=NNc1nc(-c2ccccn2)nc2ccccc12 | – | > 200 µM | 7.94 µM
Nc1onc2c1Cc1c(noc1N)-c1ccccc1-2 | – | > 200 µM | 166 µM
CC(=O)Oc1cc(S(=O)(=O)Nc2n[nH]c(N)n2)c(S)cc1Cl | – | > 200 µM | > 200 µM
N/N=C1/C2CN3CCN(C2)CC1(c1ccc([N+](=O)[O-])cc1)C3 | – | > 200 µM | > 200 µM
COc1ccc(N2C(N)=C(C#N)C(C#N)(C#N)C2c2cccc([N+](=O)[O-])c2)cc1 (configuration not stated) | – | > 200 µM | 5.89 µM
CCOC(=O)C(=[N+]=[N-])C(=O)CN1C(=O)c2ccccc2C1=O | – | > 437 µM | > 437 µM
CC(=O)N(C(C)=O)c1ncc(-n2nc(-c3ccccc3)cc2-c2ccccc2)c(-c2ccccc2)n1 | – | > 200 µM | 115 µM
CCCCNC1CCC2(SCCS2)c2[nH]c3ccccc3c21 (configuration not stated) | – | > 200 µM | 1.26 µM
CCCCOC(=O)CC(C(=O)OCCCC)C(C(=O)OCCCC)P(=O)(OCCCC)OCCCC (configuration not stated) | – | > 26.3 µM | 17.4 µM
Nc1cnc2c(c1)c(=O)nc1n2CCS1 | – | > 200 µM | 117 µM
CN(C)c1nn2c(-c3ccccc3)nnc2s1 | inactive | – | –
O=c1c2ccccc2nc(/C=C(\O)c2ccncc2)n1-c1ccc(Cl)cc1 | – | > 1.45 µM | > 1.45 µM
Cc1cccc2c1Oc1cc(Cl)ccc1C2NC(=O)CCN1CCOCC1 (configuration not stated) | – | > 200 µM | > 200 µM
CCOC(=O)c1ccc(C(=O)OCC)n1-c1cc2cc(c1)CSCc1cc(cc(-n3c(C(=O)OCC)ccc3C(=O)OCC)c1)CSC2 | – | > 200 µM | > 200 µM
COC(=O)C(C(=O)C(N)=O)c1csc(-n2nc(-c3ccccc3)cc2-c2ccccc2)n1 (configuration not stated) | – | > 61.7 µM | 53.7 µM
COC1=C(c2c[nH]c3ccc(CC=C(C)C)cc23)C(=O)C(OC)=C(c2c[nH]c3ccc(CC=C(C)C)cc23)C1=O | – | > 38.9 µM | 2.24 µM
CC(C)CC(NC(=O)C(Cc1ccc(O)cc1)NC(=O)C(CO)NC(=O)C(C)NC(=O)C(CCCN=C(N)N)NC(=O)C(CCC(=O)O)NC(=O)C(NC(=O)C(N)CCC(=O)O)C(C)C)C(=O)NC(CO)C(=O)NC(CCCCN)C(=O)O (configuration not stated) (H-EVERASYLSK-OH; configuration not given here) | inactive | – | –
COc1cc(N(C)C)c(OC)cc1/C=C1\C=Cc2ccccc21 | – | > 17 µM | > 17 µM

Source: PubChem BioAssay AID179 (DTP/NCI, 2004)
